Source: US10689377B2 (Mirati Therapeutics, Inc., priority 2017, dated 2020)
Counter-ions that a name gives are not always drawn.

What follows are molecules tested against KRas G12C (Homo sapiens, UniProt P01116, G12C) (assay: Cellular inhibition of KRas G12C measured by Phospho-ERK in NCI-H358 cells). Settings: pERK(Thr202/Tyr204) normalized with GAPDH, NCI-H358 cells, 3 hours; read-out: IC50.
Format: cell-based
Method: Cells were plated in poly-D-Lysine coated 96-well plates at a concentration of 50,000 cells/well and allowed to attach for 8-12 hours. Diluted compounds were then added at a final concentration of 0.5% DMSO. After 3 hours, the medium was removed, 150 μL of 4% formaldehyde was added and the plates were incubated for 20 minutes. The plates were washed with PBS, and permeabilized using 150 μL of ice cold 100% methanol for 10 minutes. Non-specific antibody binding to the plates was blocked using 100 μL Licor Blocking Buffer (Li-Cor Biotechnology, Lincoln Nebr.) for 1 hour at room temperature. Positive control samples and samples lacking cells were parallel processed with test samples as standards.
The amount Phospho-ERK was determined using an antibody specific for the phosphorylated form of ERK and compared to the amount of GAPDH. […] The plates were incubated for 2 hours at room temperature. The plates were washed with PBS+0.05% Tween 20.
Secondary antibodies used to visualize primary antibodies were added as follows: Anti-rabbit-680 diluted 1:1000 and Anti-mouse-800 diluted 1:1000 in Licor Block+0.05% Tween 20 and incubated for 1 hour at room temperature. The plates were washed with PBS+0.05% Tween 20. A 100 μL aliquot of PBS was added to each well and the plates were read on a LICOR AERIUS plate reader.
The pERK(Thr202/Tyr204) signal was normalized with the GAPDH signal and percent of DMSO control values were calculated. IC50 values were generated using a 4 parameter fit of the dose response curve. Key: “A”≥0.0001-≤1 μM; “B”>1 μM and ND=not determined.

Chain of KRas G12C (P01116 1-188 isoform P01116-2 G12C): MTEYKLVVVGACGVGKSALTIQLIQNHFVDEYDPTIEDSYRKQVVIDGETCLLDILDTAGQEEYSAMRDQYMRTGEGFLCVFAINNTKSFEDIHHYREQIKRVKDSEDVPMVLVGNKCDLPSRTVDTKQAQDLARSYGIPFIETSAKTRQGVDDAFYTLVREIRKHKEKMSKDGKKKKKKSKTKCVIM

`C=CC(=O)N1CCN(c2nc(N3CCN(CCO)CC3)nc3c2CCN(c2cc(O)cc4ccccc24)C3)CC1` [Example 26, 1-(4-(2-(4-(2-hydroxyethyl)piperazin-1-yl)-7-(3-hydroxynaphthalen-1-yl)-5,6,7,8-tetrahydropyrido[3,4-d]pyrimidin-4-yl)piperazin-1-yl)prop-2-en-1-one] and `C=CC(=O)N1CCN(c2nc(OCCN3CCN(C(C)=O)CC3)nc3c2CCN(c2cc(O)cc4ccccc24)C3)CC1` [Example 37, 1-(4-(2-(2-(4-acetylpiperazin-1-yl)ethoxy)-7-(3-hydroxynaphthalen-1-yl)-5,6,7,8-tetrahydropyrido[3,4-d]pyrimidin-4-yl)piperazin-1-yl)prop-2-en-1-one] cannot be ordered by IC50: greater than 1 µM for the first, greater than 1 µM for the second.

`C=CC(=O)N1CCN(c2nc(OCCN3CCS(=O)(=O)CC3)nc3c2CCN(c2cc(O)cc4ccccc24)C3)CC1` [Example 33, 1-(4-(2-(2-(1,1-dioxidothiomorpholino)ethoxy)-7-(3-hydroxynaphthalen-1-yl)-5,6,7,8-tetrahydropyrido[3,4-d]pyrimidin-4-yl)piperazin-1-yl)prop-2-en-1-one trifluoroacetate] and `C=CC(=O)N1CCN(c2nc(OCCCN3CCS(=O)(=O)CC3)nc3c2CCN(c2cc(O)cc4ccccc24)C3)CC1` [Example 34, 1-(4-(2-(3-(1,1-dioxidothiomorpholino)propoxy)-7-(3-hydroxynaphthalen-1-yl)-5,6,7,8-tetrahydropyrido[3,4-d]pyrimidin-4-yl)piperazin-1-yl)prop-2-en-1-one trifluoroacetate] cannot be ordered by IC50: greater than 1 µM for the first, greater than 1 µM for the second.

First: C=CC(=O)N1CCN(c2nc(OCCCCN3CCOCC3)nc3c2CCN(c2cc(O)cc4ccccc24)C3)CC1 [Example 35, 1-(4-(7-(3-hydroxynaphthalen-1-yl)-2-(4-morpholinobutoxy)-5,6,7,8-tetrahydropyrido[3,4-d]pyrimidin-4-yl)piperazin-1-yl)prop-2-en-1-one trifluoroacetate]
Second: C=CC(=O)N1CCN(c2nc(OCCCN3CCCC3)nc3c2CCN(c2cc(O)cc4ccccc24)C3)CC1 [Example 39, 1-(4-(7-(3-hydroxynaphthalen-1-yl)-2-(3-(pyrrolidin-1-yl)propoxy)-5,6,7,8-tetrahydropyrido[3,4-d]pyrimidin-4-yl)piperazin-1-yl)prop-2-en-1-one]
The IC50 of the first is higher: greater than 1 µM for the first, 0.0001 to 1 µM for the second.

`C=CC(=O)N1CCN(c2nc(O[C@H](C)CN3CCN(C(C)=O)CC3)nc3c2CCN(c2cc(O)cc4ccccc24)C3)CC1` [Example 36, (R)-1-(4-(2-((1-(4-acetylpiperazin-1-yl)propan-2-yl)oxy)-7-(3-hydroxynaphthalen-1-yl)-5,6,7,8-tetrahydropyrido[3,4-d]pyrimidin-4-yl)piperazin-1-yl)prop-2-en-1-one] and `C=CC(=O)N1CCN(c2nc(OCCN3CCC(F)C3)nc3c2CCN(c2cc(O)cc4ccccc24)C3)CC1` (stereo not drawn) [Example 49, 1-(4-(2-(2-(3-fluoropyrrolidin-1-yl)ethoxy)-7-(3-hydroxynaphthalen-1-yl)-5,6,7,8-tetrahydropyrido[3,4-d]pyrimidin-4-yl)piperazin-1-yl)prop-2-en-1-one] cannot be ordered by IC50: greater than 1 µM for the first, greater than 1 µM for the second.

`C=CC(=O)N1CCN(c2nc(OCCCN3CCCCC3)nc3c2CCN(c2cc(O)cc4ccccc24)C3)CC1` [Example 38, 1-(4-(7-(3-hydroxynaphthalen-1-yl)-2-(3-(piperidin-1-yl)propoxy)-5,6,7,8-tetrahydropyrido[3,4-d]pyrimidin-4-yl)piperazin-1-yl)prop-2-en-1-one] and `C=CC(=O)N1CCN(c2nc(OCCN3CCCCC3)nc3c2CCN(c2cc(O)cc4ccccc24)C3)CC1` [Example 52, 1-[4-[7-(3-hydroxy-1-naphthyl)-2-[2-(1-piperidyl)ethoxy]-6,8-dihydro-5H-pyrido[3,4-d]pyrimidin-4-yl]piperazin-1-yl]prop-2-en-1-one] fall in the same range of IC50: 0.0001 to 1 µM for the first, 0.0001 to 1 µM for the second.

`C=CC(=O)N1CCN(c2nc(OCCCCN(C)C)nc3c2CCN(c2cc(O)cc4ccccc24)C3)CC1` [Example 40, 1-(4-(2-(4-(dimethylamino)butoxy)-7-(3-hydroxynaphthalen-1-yl)-5,6,7,8-tetrahydropyrido[3,4-d]pyrimidin-4-yl)piperazin-1-yl)prop-2-en-1-one] and `C=CC(=O)N1CCN(c2nc(OCC(CO)N(C)C)nc3c2CCN(c2cc(O)cc4ccccc24)C3)CC1` (stereo not drawn) [Example 55, 1-(4-(2-(2-(dimethylamino)-3-hydroxypropoxy)-7-(3-hydroxynaphthalen-1-yl)-5,6,7,8-tetrahydropyrido[3,4-d]pyrimidin-4-yl)piperazin-1-yl)prop-2-en-1-one] fall in the same range of IC50: 0.0001 to 1 µM for the first, 0.0001 to 1 µM for the second.

`C=CC(=O)N1CCN(c2nc(OCCCN3CCOCC3)nc3c2CCN(c2cc(O)cc(C4CC4)c2)C3)CC1` [Example 41, 1-(4-(7-(3-cyclopropyl-5-hydroxyphenyl)-2-(3-morpholinopropoxy)-5,6,7,8-tetrahydropyrido[3,4-d]pyrimidin-4-yl)piperazin-1-yl)prop-2-en-1-one trifluoroacetate] and `C=CC(=O)N1CCN(c2nc(OCCCN3CCOCC3)nc3c2CCN(c2cc(O)ccc2F)C3)CC1` [Example 42, 1-(4-(7-(2-fluoro-5-hydroxyphenyl)-2-(3-morpholinopropoxy)-5,6,7,8-tetrahydropyrido[3,4-d]pyrimidin-4-yl)piperazin-1-yl)prop-2-en-1-one] cannot be ordered by IC50: greater than 1 µM for the first, greater than 1 µM for the second.

`C=CC(=O)N1CCN(c2nc(OCCCN3CCOCC3)nc3c2CCN(c2cc(O)cc4cc(C)ccc24)C3)CC1` [Example 43, 1-(4-(7-(3-hydroxy-6-methylnaphthalen-1-yl)-2-(3-morpholinopropoxy)-5,6,7,8-tetrahydropyrido[3,4-d]pyrimidin-4-yl)piperazin-1-yl)prop-2-en-1-one] and `C=CC(=O)N1CCN(c2nc(OCCCN3CCOCC3)nc3c2CCN(c2c(C)ccc4[nH]ncc24)C3)CC1` [Example 44, 1-(4-(7-(5-methyl-1H-indazol-4-yl)-2-(3-morpholinopropoxy)-5,6,7,8-tetrahydropyrido[3,4-d]pyrimidin-4-yl)piperazin-1-yl)prop-2-en-1-one] cannot be ordered by IC50: greater than 1 µM for the first, greater than 1 µM for the second.

`C=CC(=O)N1[C@@H]2CC[C@H]1CN(c1nc(OC(C)CN(C)C)nc3c1CCN(c1cc(O)cc4ccccc14)C3)C2` (stereo partly drawn) [Example 45, 1-((1R,5S)-3-(2-((1-(dimethylamino)propan-2-yl)oxy)-7-(3-hydroxynaphthalen-1-yl)-5,6,7,8-tetrahydropyrido[3,4-d]pyrimidin-4-yl)-3,8-diazabicyclo[3.2.1]octan-8-yl)prop-2-en-1-one] and `C=CC(=O)N1C[C@H]2CC[C@@H](C1)N2c1nc(OC(C)CN(C)C)nc2c1CCN(c1cc(O)cc3ccccc13)C2` (stereo partly drawn) [Example 46, 1-((1R,5S)-8-(2-((1-(dimethylamino)propan-2-yl)oxy)-7-(3-hydroxynaphthalen-1-yl)-5,6,7,8-tetrahydropyrido[3,4-d]pyrimidin-4-yl)-3,8-diazabicyclo[3.2.1]octan-3-yl)prop-2-en-1-one] cannot be ordered by IC50: greater than 1 µM for the first, greater than 1 µM for the second.

`C=CC(=O)N1CCN(c2nc(OCCN(C)C)nc3c2CCN(c2cc(O)cc4ccccc24)C3C)CC1` (stereo not drawn) [Example 47, 1-(4-(2-(2-(dimethylamino)ethoxy)-7-(3-hydroxynaphthalen-1-yl)-8-methyl-5,6,7,8-tetrahydropyrido[3,4-d]pyrimidin-4-yl)piperazin-1-yl)prop-2-en-1-one] and `C=CC(=O)N1CCN(c2nc(OCCN(C)C)nc3c2CC(C)N(c2cc(O)cc4ccccc24)C3)CC1` (stereo not drawn) [Example 48, 1-(4-(2-(2-(dimethylamino)ethoxy)-7-(3-hydroxynaphthalen-1-yl)-6-methyl-5,6,7,8-tetrahydropyrido[3,4-d]pyrimidin-4-yl)piperazin-1-yl)prop-2-en-1-one trifluoroacetate] cannot be ordered by IC50: greater than 1 µM for the first, greater than 1 µM for the second.

`C=CC(=O)N1CCN(c2nc(OCCN(C)C)nc3c2CCN(c2cc(O)cc4ccccc24)C3)CC1CO` (stereo not drawn) [Example 50, 1-(4-(2-(2-(dimethylamino)ethoxy)-7-(3-hydroxynaphthalen-1-yl)-5,6,7,8-tetrahydropyrido [3,4-d]pyrimidin-4-yl)-2-(hydroxymethyl)piperazin-1-yl)prop-2-en-1-one] and `C=CC(=O)N1CCN(c2nc(OCCN(C)C)nc3c2CCN(c2cc(O)cc4ccccc24)C3)C(CO)C1` (stereo not drawn) [Example 53, 1-(4-(2-(2-(dimethylamino)ethoxy)-7-(3-hydroxynaphthalen-1-yl)-5,6,7,8-tetrahydropyrido[3,4-d]pyrimidin-4-yl)-3-(hydroxymethyl)piperazin-1-yl)prop-2-en-1-one] cannot be ordered by IC50: greater than 1 µM for the first, greater than 1 µM for the second.

`C=CC(=O)N1CCN(c2nc(OCCN(C)C)nc3c2CCN(c2cc(O)cc4ccccc24)C3)CC1C(=O)N(C)C` (stereo not drawn) [Example 51, 1-acryloyl-4-(2-(2-(dimethylamino)ethoxy)-7-(3-hydroxynaphthalen-1-yl)-5,6,7,8-tetrahydropyrido[3,4-d]pyrimidin-4-yl)-N,N-dimethylpiperazine-2-carboxamide] and `C=CC(=O)N1CCN(c2ncnc3c2CCN(c2nc(N)cc4ccccc24)C3)CC1` [Example 54, 1-[4-[7-(3-amino-1-isoquinolyl)-6,8-dihydro-5H-pyrido[3,4-d]pyrimidin-4-yl]piperazin-1-yl]prop-2-en-1-one] cannot be ordered by IC50: greater than 1 µM for the first, greater than 1 µM for the second.
